Data on 14 molecules can be found in patent publication US7179814B2, “Agents for controlling plant pests” (priority 1998, dated 2007).

Read-outs that look alike come from different tables or passages of the source.

In experiment [1] the test system is Phytophthora infestans. It is filed as in vivo. Conditions: single active compound.
Experiment [2] concerns caterpillars of the diamondback moth (Plutella xylostella). The experiment in a line: Plutella test (cabbage leaf dip). The format is in vivo. The procedure:
(§1) To produce a suitable preparation of active compound, 1 part by weight of an active compound or an active compound combination is mixed with the stated amounts of solvent and emulsifier, and the concentrate is diluted with water to the desired concentration.
Cabbage leaves (Brassica oleracea) are treated by being dipped into the preparation of active compound of the desired concentration and are populated with caterpillars of the diamondback moth (Plutella xylostella) while the leaves are still moist.
After the desired period of time, the kill in % is determined 100% means that all caterpillars have been killed; 0% means that none of the caterpillars have been killed.

The test system of experiment [3] is green rice leaf hopper (Nephotettix cincticeps). In words: Nephotettix test (rice seedling dip). It is filed as in vivo. On the procedure: as §1
Rice seedlings (Oryza sativa) are treated by being dipped into the active compound preparation of the desired concentration and are populated with the green rice leaf hopper (Nephotettix cincticeps) while the leaves are still moist.
After the desired period of time, the kill in % is determined. 100% means that all the leaf hoppers have been killed; 0% means that none of the leaf hoppers have been killed.

Experiment [4] deals with Diabrotica balteata larvae in soil. The experiment in a line: Critical concentration test/soil insects, Diabrotica balteata. It is filed as in vivo. The settings on record: 20.0 ppm in soil, 7 days after infestation; for pest or weed control at 20 ppm: Diabrotica balteata, 168 h, read-out: Kill in %. On the procedure:
(§2) To produce a suitable preparation of active compound, 1 part by weight of the active compound or the active compound mixture is mixed with the stated amounts of solvent and emulsifier, and the concentrate is diluted with water to the desired concentration.
(§3) The active compound preparation is mixed intimately with soil. Here, the concentration of the active compound in the preparation is almost irrelevant; only the amount by weight of active compound or active compound mixture per volume unit of soil, which is stated in ppm (mg/l), matters.
Soil is filled into 0.5 l pots and these are allowed to stand at 20° C. Immediately after preparation, 5 pre-germinated maize corns are placed into each pot. After 2 days, the test insects are placed into the treated soil. After a further 7 days, the kill in % is determined. 100% means that all test insects have been killed; 0% means that none of the test insects have been killed.

The subject of experiment [5] is Spodoptera frugiperda. The experiment in a line: Critical concentration test/soil insects, Spodoptera frugiperda. The settings on record: 120 h, 20.00 ppm in soil, 5 days after infestation, read-out: Kill in %. The format is in vivo. The procedure:
as §2, §3
Soil is filled into 0.5 l pots and these are allowed to stand at 20° C. Immediately after preparation, 3 pre-germinated maize corns are placed into each pot. After the maize corns have emerged, boring sleeves are placed onto the pots. 9 days after preparation, the maize is populated with the test insects. After a further 5 days, the kill in % is determined. 100% means that all test insects have been killed; 0% means that the number of insects which are still alive is the same as for the untreated control.

For experiment [6], the system named is Phaedon cochleariae larvae. In words: Critical concentration test/root-systemic action, Phaedon cochleariae. The format is in vivo. The settings on record: 72 h, 20.00 ppm in soil, root-systemic, 3 days after infestation, read-out: Kill in %. On the procedure:
as §2, §3
Soil is filled into 250 ml pots and these are planted with cabbage (Brassica oleracea). The active compound or the active compound combination can thus be taken up by the plant roots from the soil and transported into the leaves.
After 7 days, the leaves are populated with the abovementioned test animals. After a further 3 days, the kill in % is determined. 100% means that all test insects have been killed; 0% means that the number of insects which are still alive is the same as in the untreated control.

For experiment [7], the system named is Botrytis cinerea. The experiment in a line: Botrytis test (bean)/protective. The format is in vivo. Conditions: single active compound. The procedure:
(§4) To produce a suitable preparation of active compound, 1 part by weight of active compound or active compound combination is mixed with the stated amounts of solvent and emulsifier, and the concentrate is diluted with water to the desired concentration, or a commercial formulation of active compound or active compound combination is diluted with water to the desired concentration.
To test for protective activity, young plants are sprayed with the active compound preparation at the stated application rate. After the spray coating has dried on, 2 small pieces of agar colonized by Botrytis cinerea are placed onto each leaf. The inoculated plants are placed in a dark chamber at approximately 20° C. and 100% relative atmospheric humidity.
2 days after the inoculation, the size of the disease spots on the leaves is evaluated. 0% means an efficacy which corresponds to that of the control, whereas an efficacy of 100% means that no infection is observed.

For experiment [8], the system named is Pyrenophora teres. The experiment in a line: Pyrenophora teres test (barley)/protective. It is filed as in vivo. Conditions: single active compound. The procedure:
as §4
To test for protective activity, young plants are sprayed with the active compound preparation at the stated application rate. After the spray coating has dried on, the plants are sprayed with a conidia suspension of Pyrenophora teres. The plants remain in an incubation cabin at 20° C. and 100% relative atmospheric humidity for 48 hours.
The plants are then placed in a greenhouse at a temperature of approximately 20° C. and a relative atmospheric humidity of approximately 80%.
(§5) Evaluation is carried out 7 days after the inoculation. 0% means an efficacy which corresponds to that of the control, whereas an efficacy of 100% means that no infection is observed.

Experiment [9] deals with Erysiphe graminis f.sp. hordei. The experiment in a line: Erysiphe test (barley)/protective. The format is in vivo. The settings on record: single active compound. On the procedure: as §4
(§6) To test for protective activity, young plants are sprayed with the preparation of active compound at the stated application rate.
After the spray coating has dried on, the plants are dusted with spores of Erysiphe graminis f.sp. hordei.
(§7) The plants are placed in a greenhouse at a temperature of approximately 20° C. and a relative atmospheric humidity of approximately 80% to promote the development of mildew pustules.
as §5

Experiment [10] deals with larvae of the mustard beetle (Phaedon cochleariae). In words: Phaedon larvae test (cabbage leaf dip). It is filed as in vivo. The procedure:
as §1
Cabbage leaves (Brassica oleracea) are treated by being dipped into the preparation of active compound of the desired concentration and are populated with larvae of the mustard beetle (Phaedon cochleariae) while the leaves are still moist.
After the desired period of time, the kill in % is determined. 100% means that all beetle larvae have been killed; 0% means that none of the beetle larvae have been killed.

Experiment [11] deals with Heliothis virescens caterpillars. In words: Heliothis virescens test (soya bean shoot dip). The format is in vivo. The procedure: as §1
Soya bean shoots (Glycine max) are treated by being dipped into the active compound preparation of the desired concentration and are populated with Heliothis virescens caterpillars while the leaves are still moist.
After the desired period of time, the kill in % is determined. 100% means that all caterpillars have been killed; 0% means that none of the caterpillars have been killed.

Experiment [12] has as its system Sphaerotheca fuliginea. In words: Sphaerotheca test (cucumber)/protective. It is filed as in vivo. The settings on record: 10 g/ha, single active compound, 10 days after inoculation. The procedure: as §4
To test for protective activity, young plants are sprayed with the commercial active compound preparation at the stated application rate. After the spray coating has dried on, the plants are inoculated with an aqueous spore suspension of Sphaerotheca fuliginea. The plants are then placed in a greenhouse at approximately 23° C. and a relative atmospheric humidity of approximately 70%.
(§8) Evaluation is carried out 10 days after the inoculation. 0% means an efficacy which corresponds to that of the control, whereas an efficacy of 100% means that no infection is observed.

The subject of experiment [13] is Fusarium culmorum. In words: Fusarium culmorum test (wheat)/seed treatment. Conditions: 75 g/ha, dry seed dressing, approximately 3 weeks after sowing. It is filed as in vivo. On the procedure: The active compounds are applied as a dry dressing. They are prepared by extending the active compound in question with ground minerals to give a finely pulverulent mixture which ensures even distribution on the surface of the seeds.
For the dressing, the infected seeds are shaken with the dressing in a closed glass bottle for 3 minutes.
2×100 seeds of the wheat are sown at a depth of 1 cm into standard soil, and the wheat is cultivated in a greenhouse at a temperature of approximately 18° C. and at a relative atmospheric humidity of approximately 95% in seed containers receiving 15 hours of light per day.
The evaluation of the plants for symptoms is carried out approximately 3 weeks after sowding. 0% means an efficacy which corresponds to that of the control, whereas an efficacy of 100% means that no infection is observed.

Experiment [14] deals with green peach aphid. The experiment in a line: Myzus test (cabbage leaf dip). It is filed as in vivo, Myzus (green peach aphid). The settings on record: concentration 0.1 %. The procedure:
as §1
Cabbage leaves (Brassica oleracea) which are heavily infested by the green peach aphid are treated by being dipped into the active compound preparation of the desired concentration.
After the desired period of time, the kill in % is determined. 100% means that all aphids have been killed; 0% means that none of the aphids have been killed.

Experiment [15] concerns Erysiphe graminis f.sp. tritici. The experiment in a line: Erysiphe test (wheat)/protective. The format is in vivo. The settings on record: single active compound. The procedure:
as §4, §6
After the spray coating has dried on, the plants are dusted with spores of Erysiphe graminis f.sp. tritici.
as §7, §5

In experiment [16] the test system is Puccinia recondita. In words: Puccinia test (wheat)/protective. The format is in vivo. The settings on record: 62.5 g/ha, 10 days after inoculation. On the procedure: as §4
To test for protective activity, young plants are sprayed with the active compound preparation at the stated application rate. After the spray coating has dried on, the plants are sprayed with a conidia suspension of Puccinia recondita. The plants remain in an incubation cabin at 20° C. and 100% relative atmospheric humidity for 48 hours.
The plants are then placed in a greenhouse at a temperature of approximately 20° C. and a relative atmospheric humidity of 80% to promote the development of rust pustules.
as §8

The mark [17] stands for this setting: 62.5 g/ha, 7 days after inoculation.

Molecule `Cc1ccc(C(C)NC(=O)C(NC(=O)OC(C)C)C(C)C)cc1` (racemic) [SZX722] registered an Efficacy in % in [1] (10 g/ha) of 88%.

On to `CN(C)C(=S)SSC(=S)N(C)C` [TMTD], for which the Kill in % in experiment [2] (concentration 0.1 %) and in [3] (concentration 0.1 %) was 0% in each case. The pest or weed control at 20 ppm in experiment [4] was determined as 0%.

For the molecule `CO/C=C(/C(=O)OC)c1ccccc1Oc1cc(Oc2ccccc2C#N)ncn1` [azoxystrobin], the pest or weed control at 20 ppm in experiment [4], in experiment [5] and in experiment [6] was 0% throughout. Moreover, the Efficacy in % in experiment [1] (10 g/ha) amounted to 74%; in experiment [7] (40 g/ha), 42%. The “Efficacy in % calculated/found” value in [8] (18.75 g/ha) is listed as 0%.

`CC(C)(C)C(O)C(Oc1ccc(-c2ccccc2)cc1)n1cncn1` (centres unmarked) [bitertanol]: the pest or weed control at 20 ppm in [4], in experiment [5] and in [6] was 0% in each case. In [7] (500 g/ha), the Efficacy in % is recorded as 30%. In experiment [9] (18.75 g/ha), the “Efficacy in % calculated/found” value was 0%.

As to `CC(C1CC1)C(O)(Cn1cncn1)c1ccc(Cl)cc1` (centres unmarked) [cyproconazole], the values for the Kill in % in experiment [10] (concentration 0.004 %), in experiment [2] (concentration 0.004 %) and in experiment [11] (concentration 0.004 %) were 10%, 0% and 0%, respectively. The pest or weed control at 20 ppm in experiment [4] and in experiment [5] was 0% throughout. Further, the Efficacy in % amounted to 70% in experiment [12] and 1% in experiment [13].

On to `N#Cc1c[nH]cc1-c1cccc(Cl)c1Cl` [fenpiclonil], for which the Kill in % in experiment [2] (concentration 0.1 %) and in [14] was 0% each time. For the same molecule, the pest or weed control at 20 ppm in experiment [4], in experiment [5] and in [6] was 0% throughout.

On to `N#Cc1c[nH]cc1-c1cccc2c1OC(F)(F)O2` [fludioxonil], for which, in experiment [3] (concentration 0.02 %), the Kill in % is listed as 0%. Also, the pest or weed control at 20 ppm in [4] is 0%. Further, the Efficacy in % in experiment [7] (10 g/ha, 2 days after inoculation) worked out at 40%; in experiment [13], 0%.

For the molecule `CO/N=C(/C(=O)OC)c1ccccc1COc1ccccc1C` [kresoxim-methyl], the Kill in % in experiment [10] (concentration 0.1 %) was 0%. Besides, the pest or weed control at 20 ppm in experiment [4] is 0%. Also, the “Efficacy in % calculated/found” value in experiment [9] (setting [17]) was 0%; in [15] (18.75 g/ha), 43%; in experiment [15] (setting [17]), 79%.

As to `COCC(=O)N(c1c(C)cccc1C)C(C)C(=O)OC` (centres unmarked) [metalaxyl], the Kill in % in experiment [3] (concentration 0.1 %) and in experiment [14] was 0% in each case. The pest or weed control at 20 ppm in experiment [4], in experiment [5] and in experiment [6] was 0% each time.

Consider `O=C(Nc1ccccc1)N(Cc1ccc(Cl)cc1)C1CCCC1` [pencycuron], for which the Kill in % in [2] (concentration 0.1 %), in experiment [3] (concentration 0.1 %) and in [14] was 0% each time. Besides, the pest or weed control at 20 ppm in [4] was 0%.

Consider `CCCC1COC(Cn2cncn2)(c2ccc(Cl)cc2Cl)O1` (centres unmarked) [propiconazole], for which, in experiment [3] (concentration 0.004 %), the Kill in % is 0%. For the same molecule, the pest or weed control at 20 ppm in experiment [4], in experiment [5] and in experiment [6] was 0% in each case. In addition, the Efficacy in % stood at 5% in experiment [1] (500 g/ha, 3 days after inoculation) and 75% in experiment [16]. Moreover, the “Efficacy in % calculated/found” value in [8] (setting [17]) is 0%.

Take `CC(C)(C)C(O)(CCc1ccc(Cl)cc1)Cn1cncn1` (centres unmarked) [tebuconazole]: the pest or weed control at 20 ppm in experiment [4], in experiment [5] and in experiment [6] was 0% throughout. In [8] (setting [17]), the “Efficacy in % calculated/found” value is 50%.

Take `CC(C)(C)C(O)C(Oc1ccc(Cl)cc1)n1cncn1` (centres unmarked) [triadimenol]: the pest or weed control at 20 ppm in experiment [4], in experiment [5] and in experiment [6] was 0% in each case. In experiment [8] (18.75 g/ha), the “Efficacy in % calculated/found” value was 40%.

In the case of tolylfluanid, the Kill in % in experiment [2] (concentration 0.02 %), in [11] (concentration 0.02 %), in experiment [3] (concentration 0.02 %) and in experiment [4] was 0% throughout. Moreover, the Efficacy in % in [1] (50 g/ha) is reported as 34%.
